Results reported in US9505798B2, “Steroid compounds as RORyt modulators and uses thereof” (New York University, priority 2010, dated 2016).
pIC50: −log10 of the molar value. Read-outs that look alike come from different tables or passages of the source.

Key:
[1] = biological target: T1, mouse RORγt (Mus musculus, UniProt P51450); experiment: Drosophila S2 cell RORγt luciferase reporter; format: cell-based
T1 construct: mouse RORγt (amino acids 79 to the carboxyl terminal end); expressed in transfected cells
T1 sequence (P51450 79-495 isoform P51450-2): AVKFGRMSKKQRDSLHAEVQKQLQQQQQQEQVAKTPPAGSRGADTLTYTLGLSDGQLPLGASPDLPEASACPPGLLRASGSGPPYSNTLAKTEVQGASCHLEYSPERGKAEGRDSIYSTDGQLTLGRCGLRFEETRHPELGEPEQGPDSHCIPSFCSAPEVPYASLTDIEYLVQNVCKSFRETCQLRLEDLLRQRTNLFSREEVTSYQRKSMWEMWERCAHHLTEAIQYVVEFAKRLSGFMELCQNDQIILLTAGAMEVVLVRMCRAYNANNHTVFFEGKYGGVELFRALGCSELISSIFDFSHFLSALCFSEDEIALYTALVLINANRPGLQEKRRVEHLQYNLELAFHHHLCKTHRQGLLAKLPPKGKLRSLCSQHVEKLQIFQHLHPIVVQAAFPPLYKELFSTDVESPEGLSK
From the text: The Drosophila S2 cell line was originally purchased from Invitrogen and was maintained in Schneider's medium supplemented with 10% heat-inactivated bovine fetal calf serum and antibiotics (Invitrogen). […] The resulting chimeric gene was subcloned into the copper inducible pMT/V5-His A vector (Invitrogen). […] Coding sequences for firefly luciferase (Promega) were PCR amplified and subcloned into pUAST vector containing Gal4 binding enhancer sequences. Renilla luciferase construct under the polIII promoter was obtained from Dr. Dasgupta's laboratory (NYU medical center). In order to generate stable cell lines, cells were co-transfected with pMT-G4 DBD-RORγt, pMT-G4 DBD-RORα, pMT-G4 DBD-DHR3, or pMT-G4 DBDVP16 and pHygro plasmids (Invitrogen) and screened for resistant colonies in the presence of hygromycin (0.3 mg/mL). […] Using similar methods, stable clones with genomic integration of the luciferase reporters and other reporters were generated such as pMT-RORα_luc, pMT-DHR3_Luc, or pMT-VP16_luc.
The following representative compounds are tested for their RORγt inhibitory activity and toxicity.
Promega Dual-Glo system is widely used for HTS as the luciferase substrates. Cell culture medium was reduced to the final volume of 10 μl or less and 10 μl of Dual-glo and 10 μl of Stop-glo luciferase substrates were added in a sequencial manner (Promega). Firefly and Renilla luciferase activity was determined by measuring luminescence signals using an automated 384-well plate reader equipped with multiple stack units (such as the Analyst GT or Envision plate readers).
10,000 Drosophila stable S2 cells with genomic integration of the Cu2+-inducible G4 DBD-mouse RORγ construct were transfected with 5 ng of pUASTfirefly luciferase and 7 ng of Pol III-Renilla luciferase and dispensed into white bottom-tissue culture 384-well plates (Corning). […] The following morning, Stop-glo luciferase substrates (Promega) were used to measure luciferase activity.
The Drosophila S2 cell line was originally purchased from Invitrogen and was maintained in Schneider's Drosophila medium supplemented with 10% heat-inactivated bovine fetal calf serum and 1× antibiotic-antimycotic solution (Invitrogen). […] The resulting chimeric gene was subcloned into the copper inducible pMT/V5-His A vector (Invitrogen) and into the constitutive pAc vector. […] Coding sequences for firefly luciferase (Promega) were PCR amplified and subcloned into the pUAST vector containing five Gal4 binding enhancer sequences. The Renilla luciferase construct under a pol III promoter and the pAc vector were obtained from R. Dasgupta (NYU School of Medicine). To generate cell lines stably expressing various chimeric proteins upon copper addition, S2 cells were co-transfected with pMT plasmids encoding individual G4 DBD chimeric constructs and the pCoHygro plasmid (Invitrogen), before screening for resistant colonies in the presence of hygromycin (0.3 mg/mL). […] The human androgen receptor (hAR) expression plasmid pMK33-hAR and its reporter TAT3-Luc were obtained from M. Garabedian (NYU School of Medicine). […] R1881 (10 nM) and Dafachronic acid (10 μM) were used as ligands for hAR and Daf12. Upon treatment of cells with copper, in 384 well plates, there was specific increase in firefly luciferase activity versus normalized Renilla luciferase activity for all cell lines described above, validating the method for high-throughput screen.
Transfections of firefly and Renilla reporter constructs were performed using the Effectene kit from Qiagen according to the manufacturer's protocol with some modifications.

[2] = biological target: T2, human RORγ LBD (Homo sapiens, UniProt P51449); experiment: In vitro binding and competition assay (fluorescence polarization, fluorescein-labeled 25-hydroxycholesterol)
T2 construct: Human RORγ LBD (residues 262-518); 6×His-tag (N); thrombin cleavage site (N); made in house; host or cells: E. coli BL21-CodonPlus(DE3)-RIL, pET46 Ek/Lic vector
T2 sequence (P51449 262-518): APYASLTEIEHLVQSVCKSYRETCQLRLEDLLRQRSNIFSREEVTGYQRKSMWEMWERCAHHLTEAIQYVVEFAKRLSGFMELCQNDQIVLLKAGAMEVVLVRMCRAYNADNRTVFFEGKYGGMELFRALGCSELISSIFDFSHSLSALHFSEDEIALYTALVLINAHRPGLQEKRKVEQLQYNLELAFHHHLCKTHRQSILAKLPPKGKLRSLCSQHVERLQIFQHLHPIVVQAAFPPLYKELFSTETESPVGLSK
Procedure: All DNA constructs were generated by PCR-based methodology and confirmed by sequencing. […] IL-17a, IFN-γ, IL-4, and CCR6 protein expression was examined by intracellular or surface staining according to the manufacturer's protocol.
The cells were induced with 0.5 mM IPTG at 16° C. overnight, then collected and lysed in 20 mM Tris-HCl (pH 8.0), 500 mM NaCl, 20 mM imidazole and 10% glycerol. Supernatant was loaded onto a HisTrap™ FF crude 5 mL column on an AKTAxpress HPLC system. The protein was eluted with a 20-500 mM imidazole gradient, dialyzed overnight against 20 mM Tris-HCl (pH 8.0) and 200 mM NaCl, and further purified on a Q Sepharose™ Fast Flow anion exchange column (Amersham Biosciences). The flow-through fraction containing pure RORγ LBD protein was collected, and DTT was added to 10 mM immediately after calculating protein concentration by OD280. For the binding assay, 2 nM Fluorescein-labeled 25-hydroxycholesterol was incubated with purified RORγ LBD protein for 2 hrs at room temperature. Protein concentration was varied by serial dilution in binding buffer (20 mM Tris-HCl (pH 8.0), 200 mM NaCl, 10 mM DTT). Fluorescent polarization signals were measured with a Beacon 2000 (PanVera).

| SMILES | pIC50 [1] | effect on RORγ transcriptional activity [1] | pIC50 [2] | pIC50 ([1]; S2 cell RORγt reporter, read-out: IC50) | pIC50 ([1]; read-out: IC50 (half-maximal inhibitory concentration), RORγ transcriptional activity) | pIC50 ([2]; in vitro competition assay, human RORγ LBD, read-out: IC50, displacement of fluorescein-labeled 25-hydroxycholesterol) |
| --- | --- | --- | --- | --- | --- | --- |
| CC1O[C@@H](OC2C(C)O[C@H](OC3C(C)O[C@@H](O[C@H]4CC[C@@]5(C)[C@H](CC[C@@H]6[C@@H]5C[C@@H](O)[C@]5(C)[C@@H](C(CO)CCO)CC[C@]65O)C4)C[C@H]3O)C[C@H]2O)C[C@@H](O)C1O (stereo partly drawn) [Compound 13, 20,22-Dihydrodigoxin-21,23-diol] | 4.70 to 4.96 | still possessed RORγ inhibitory activity | 4.92 | – | – | – |
| C[C@H]1O[C@@H](O[C@H]2[C@@H](O)C[C@H](O[C@H]3[C@@H](O)C[C@H](O[C@H]4CC[C@@]5(C)[C@H](CC[C@@H]6[C@@H]5C[C@@H](O)[C@]5(C)[C@@H](C7=CC(=O)OC7)CC[C@]65O)C4)O[C@@H]3C)O[C@@H]2C)C[C@H](O)[C@@H]1O [Digoxin] | – | – | – | 5.00 to 6.00 | 5.70 | 5.39 |
